Source: patent US9096565B2, “Inhibitors of histone deacetylase” (MethylGene Inc., priority 2007, dated 2015)
pIC50: −log10 of the molar value.

The compounds below were run against one or more of HDAC-4, HDAC-5, HDAC-6, HDAC-7, HDAC-8, HDAC-9, HDAC-10 and HDAC-11 (assay: Inhibition of histone deacetylase enzymatic activity (summary statement over isoforms)). Details: Table 3, selected examples; HDAC isoform not given.
Format: biochemical
Summary of the method: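 Activity was measured as deacetylation of the fluorogenic substrate Boc-Lys(trifluoroacetyl)-AMC over 20-30 min at 37 °C, after a 5 min room-temperature preincubation of enzyme with compound. Trypsin (1 mg/mL) with a reference HDAC inhibitor ended the reaction.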

SMILES	pIC50
O=C(NO)C(c1ccc(N2CCOCC2)cc1)c1ccsc1 (stereo not drawn) [Compound 5-112, N-hydroxy-2-(4-morpholinophenyl)-2-(thiophen-3-yl)acetamide]	> 6.00
COc1cccc(C(C(=O)NO)c2ccc(N3CCOCC3)cc2)c1 (stereo not drawn) [Compound 5-113, N-hydroxy-2-(3-methoxyphenyl)-2-(4-morpholinophenyl)acetamide]	> 6.00
O=C(NO)C(c1ccccc1)N1CCOCC1 (stereo not drawn) [Compound 5-113b, N-hydroxy-2-morpholino-2-phenylacetamide]	4.82 to 6.00
CCC(=O)ONC(=O)C(c1ccccc1)c1ccc(N2CCOCC2)cc1 (stereo not drawn) [Compound 5-114, 2-(4-morpholinophenyl)-2-phenyl-N-(propionyloxy)acetamide]	4.82 to 6.00
Cc1ccc(C(C(=O)NO)c2ccc(N3CCOCC3)cc2)cc1 (stereo not drawn) [Compound 5-115, N-hydroxy-2-(4-morpholinophenyl)-2-p-tolylacetamide]	4.82 to 6.00
O=C(NO)C(Sc1ccccc1)c1ccc(-c2ccncc2)cc1 (stereo not drawn) [Compound 5-116, N-hydroxy-2-(phenylthio)-2-(4-(pyridin-4-yl)phenyl)acetamide]	> 6.00
CC(=O)ONC(=O)C(c1ccccc1)c1ccc(N2CCOCC2)cc1 (stereo not drawn) [Compound 5-117, N-acetoxy-2-(4-morpholinophenyl)-2-phenylacetamide]	4.82 to 6.00
O=C(NO)C(c1ccc(N2CCOCC2)cc1)c1cccc(F)c1 (stereo not drawn) [Compound 5-118, 2-(3-fluorophenyl)-N-hydroxy-2-(4-morpholinophenyl)acetamide]	> 6.00
O=C(NO)C1(c2ccc(F)cc2)CCCCC1 [Compound 5-119, 1-(4-fluorophenyl)-N-hydroxycyclohexanecarboxamide]	4.82 to 6.00
O=C(NO)C1(c2ccc(F)cc2)CCCC1 [Compound 5-120, 1-(4-fluorophenyl)-N-hydroxycyclopentanecarboxamide]	4.82 to 6.00
CC(C)C(=O)ONC(=O)C(c1ccccc1)c1ccc(N2CCOCC2)cc1 (stereo not drawn) [Compound 5-121, N-(isobutyryloxy)-2-(4-morpholinophenyl)-2-phenylacetamide]	4.82 to 6.00
O=C(NO)C(c1ccc(N2CCOCC2)cc1)c1cccc2ccccc12 (stereo not drawn) [Compound 5-122, N-hydroxy-2-(4-morpholinophenyl)-2-(naphthalen-1-yl)acetamide]	> 6.00
O=C(NO)C(c1ccccc1)c1ccc(OC2CCN(Cc3ccccc3)CC2)cc1 (stereo not drawn) [Compound 5-123, 2-(4-(1-benzylpiperidin-4-yloxy)phenyl)-N-hydroxy-2-phenylacetamide]	> 6.00
Cc1cccc(C(C(=O)NO)c2ccc(N3CCOCC3)cc2)c1 (stereo not drawn) [Compound 5-125, N-hydroxy-2-(4-morpholinophenyl)-2-m-tolylacetamide]	> 6.00
O=C(NO)C(c1ccccc1)C1CCN(c2ncccn2)CC1 (stereo not drawn) [Compound 5-126, N-hydroxy-2-phenyl-2-(1-(pyrimidin-2-yl)piperidin-4-yl)acetamide]	4.82 to 6.00
O=C(NO)C(c1ccccc1)C1CCN(C(=O)c2ccccc2)CC1 (stereo not drawn) [Compound 5-127, 2-(1-benzoylpiperidin-4-yl)-N-hydroxy-2-phenylacetamide]	4.82 to 6.00
CCCC(=O)ONC(=O)C(c1ccccc1)c1ccc(N2CCOCC2)cc1 (stereo not drawn) [Compound 5-128, N-(butyryloxy)-2-(4-morpholinophenyl)-2-phenylacetamide]	4.82 to 6.00
COc1ccccc1C(C(=O)NO)c1ccc(N2CCOCC2)cc1 (stereo not drawn) [Compound 5-129, N-hydroxy-2-(2-methoxyphenyl)-2-(4-morpholinophenyl)acetamide]	4.82 to 6.00
O=C(NO)C(c1ccccc1)c1ccc(OC2CCN(CC3CC3)CC2)cc1 (stereo not drawn) [Compound 5-130, 2-(4-(1-(cyclopropylmethyl)piperidin-4-yloxy)phenyl)-N-hydroxy-2-phenylacetamide]	> 6.00
Cc1[nH]c2ccccc2c1CN1CCC(Oc2ccc(C(C(=O)NO)c3ccccc3)cc2)CC1 (stereo not drawn) [Compound 5-132, N-hydroxy-2-(4-(1-((2-methyl-1H-indol-3-yl)methyl)piperidin-4-yloxy)phenyl)-2-phenylacetamide]	> 6.00
Cn1cc(C2CCN(C(C(=O)NO)c3ccccc3)CC2)c2ccccc21 (stereo not drawn) [Compound 6-45, N-hydroxy-2-(4-(1-methyl-1H-indol-3-yl)piperidin-1-yl)-2-phenylacetamide]	> 6.00

Now from value to compound:

pIC50	SMILES
> 6.00	O=C(NO)C(c1ccccc1)c1ccc(N2C[C@@H]3C[C@]3(c3ccc(Cl)c(Cl)c3)C2)cc1 (stereo partly drawn) [Compound 6-16, 2-(4-((1S,5R)-1-(3,4-dichlorophenyl)-3-azabicyclo[3.1.0]hexan-3-yl)phenyl)-N-hydroxy-2-phenylacetamide]
> 6.00	O=C(NO)C(c1ccc(N2CCOCC2)cc1)c1ccccc1F (stereo not drawn) [Compound 6-17, 2-(2-fluorophenyl)-N-hydroxy-2-(4-morpholinophenyl)acetamide]
4.82 to 6.00	Cc1ccc(S(=O)(=O)N2CCN(C3(C(=O)NO)CCc4ccccc43)CC2)cc1 (stereo not drawn) [Compound 6-18, N-hydroxy-1-(4-(p-tolylsulfonyl)piperazin-1-yl)-2,3-dihydro-1H-indene-1-carboxamide]
> 6.00	Cc1ccccc1C(C(=O)NO)c1ccc(N2CCOCC2)cc1 (stereo not drawn) [Compound 6-19, N-hydroxy-2-(4-morpholionphenyl)-2-o-tolylacetamide]
4.82 to 6.00	O=C(NO)C(c1ccc(N2CCOCC2)cc1)c1cccc(OC(F)(F)F)c1 (stereo not drawn) [Compound 6-20, N-hydroxy-2-(4-morpholinophenyl)-2-(3-(trifluoromethoxy)phenyl)acetamide]
4.82 to 6.00	O=C(NO)C(c1ccc(N2CCOCC2)cc1)c1cccc(C(F)(F)F)c1 (stereo not drawn) [Compound 6-21, N-hydroxy-2-(4-morpholinophenyl)-2-(3-(trifluoromethyl)phenyl)acetamide]
> 6.00	O=C(NO)C(c1ccc(N2CCOCC2)cc1)c1cccc(F)c1F (stereo not drawn) [Compound 6-22]
> 6.00	O=C(NO)C(c1ccc(N2CCOCC2)cc1)c1cccc(O)c1 (stereo not drawn) [Compound 6-23, N-hydroxy-2-(3-hydroxyphenyl)-2-(4-morpholinophenyl)acetamide]
4.82 to 6.00	O=C(NO)C(c1ccc(N2CCOCC2)cc1)c1c(F)cccc1F (stereo not drawn) [Compound 6-24, 2-(2,6-difluorophenyl)-N-hydroxy-2-(4-morpholinophenyl)acetamide]
> 6.00	CSc1cccc(C(C(=O)NO)c2ccc(N3CCOCC3)cc2)c1 (stereo not drawn) [Compound 6-25, N-hydroxy-2-(3-(methylthio)phenyl)-2-(4-morpholinophenyl)acetamide]
4.82 to 6.00	O=C(NO)C(c1ccc(N2CCOCC2)cc1)c1ccccc1O (stereo not drawn) [Compound 6-26, N-hydroxy-2-(2-hydroxyphenyl)-2-(4-morpholinophenyl)acetamide]
4.82 to 6.00	O=C(NO)C(Sc1ncccn1)c1ccccc1 (stereo not drawn) [Compound 6-29, N-hydroxy-2-phenyl-2-(pyrimidin-2-ylthio)acetamide]
> 6.00	CCN(CC)c1ccc(C(C(=O)NO)c2cccc(F)c2)cc1 (stereo not drawn) [Compound 6-37]
4.82 to 6.00	O=C(NO)C(Sc1cccc(O)c1)c1ccccc1 (stereo not drawn) [Compound 6-38, N-hydroxy-2-(3-hydroxyphenylthio)-2-phenylacetamide]
> 6.00	O=C(NO)C(c1ccccc1)c1ccc(N2CCC2)cc1 (stereo not drawn) [Compound 6-39, 2-(4-(azetidin-1-yl)phenyl)-N-hydroxy-2-phenylacetamide]
> 6.00	CN(CCc1ccccc1)c1ccc(C(C(=O)NO)c2ccccc2)cc1 (stereo not drawn) [Compound 6-40, N-hydroxy-2-(4-(methyl(phenethyl)amino)phenyl)-2-phenylacetamide]
4.82 to 6.00	COc1ccc(-c2ccnc(SC(C(=O)NO)c3ccccc3)n2)cc1 (stereo not drawn) [Compound 6-42, N-hydroxy-2-(4-(4-methoxyphenyl)pyrimidin-2-ylthio)-2-phenylacetamide]
> 6.00	CCN(CCN(C)C)c1ccc(C(C(=O)NO)c2ccccc2)cc1 (stereo not drawn) [Compound 6-43]
> 6.00	CCN(CCOC)c1ccc(C(C(=O)NO)c2ccccc2)cc1 (stereo not drawn) [Compound 6-46, 2-(4-(ethyl(2-methoxyethyl)amino)phenyl)-N-hydroxy-2-phenylacetamide]
4.82 to 6.00	Cc1ccccc1OC(C(=O)NO)c1ccccc1 (stereo not drawn) [Compound 7-1, N-hydroxy-2-phenyl-2-(o-tolyloxy)acetamide]
4.82 to 6.00	Cc1cccc(OC(C(=O)NO)c2ccccc2)c1 (stereo not drawn) [Compound 7-2, N-hydroxy-2-phenyl-2-(m-tolyloxy)acetamide]
4.82 to 6.00	O=C(NO)C(Oc1ccccc1F)c1ccccc1 (stereo not drawn) [Compound 7-5, 2-(2-fluorophenoxy)-N-hydroxy-2-phenylacetamide]
4.82 to 6.00	COc1ccc(OC(C(=O)NO)c2ccccc2)cc1 (stereo not drawn) [Compound 7-11, N-hydroxy-2-(4-methoxyphenoxy)-2-phenylacetamide]
4.82 to 6.00	O=C(NO)C(Oc1ccc2c(c1)OCO2)c1ccccc1 (stereo not drawn) [Compound 7-17, 2-(benzo[d][1,3]dioxol-5-yloxy)-N-hydroxy-2-phenylacetamide]
4.82 to 6.00	CSc1ccc(OC(C(=O)NO)c2ccccc2)cc1 (stereo not drawn) [Compound 7-18, N-hydroxy-2-(4-(methylthio)phenoxy)-2-phenylacetamide]
4.82 to 6.00	Cc1ccc(OC(C(=O)NO)c2ccccc2)c(Cl)c1 (stereo not drawn) [Compound 7-20, 2-(2-chloro-4-methylphenoxy)-N-hydroxy-2-phenylacetamide]
> 6.00	O=C(NO)C(Oc1cccc2ccccc12)c1ccccc1 (stereo not drawn) [Compound 7-31, N-hydroxy-2-(naphthalen-1-yloxy)-2-phenylacetamide]
4.82 to 6.00	O=C(NO)C(Oc1ccc(F)cc1Cl)c1ccccc1 (stereo not drawn) [Compound 7-33, 2-(2-chloro-4-fluorophenoxy)-N-hydroxy-2-phenylacetamide]
4.82 to 6.00	O=C(NO)C(Oc1ccc(F)c(Cl)c1)c1ccccc1 (stereo not drawn) [Compound 7-34, 2-(3-chloro-4-fluorophenoxy)-N-hydroxy-2-phenylacetamide]
4.82 to 6.00	Cc1ccc(OC(C(=O)NO)c2ccccc2)c2c1CCC2 (stereo not drawn) [Compound 7-35, N-hydroxy-2-(7-methyl-2,3-dihydro-1H-inden-4-yloxy)-2-phenylacetamide]
